Results reported in US8334293B2, “P70 S6 kinase inhibitor and EGFR inhibitor combination therapy” (Eli Lilly and Company, priority 2008, dated 2012).
Where a name gives a salt, the structure may show the parent alone.

Test system: A549 human non-small-cell lung carcinoma cells
Experiment: In vivo efficacy, A549 xenograft tumor volume
Design: species or system mice
Conditions: for pairwise comparison of log tumor volume AUC with the combination group / statistical difference (p) of log tumor volume AUC from the vehicle: 2-way ANOVA; for Tumor volume Mean: oral once daily, 2.5 mg/kg p70 S6 kinase inhibitor and/or 20 mg/kg erlotinib hydrochloride, in mm^3 (unit assumed); for Signif. (difference relative to vehicle group): tumor volume, repeated measures ANOVA; for log tumor volume AUC: tumor volume vs. time, trapezoid rule, vehicle 3.91
Method: A549 human non-small-cell lung carcinoma cells (5×10^6) are subcutaneously implanted into the flank of female C.B-17 (Fox Chase SCID) Model #CB17SC-M mice in 0.2 mL of matrigel. Approximately 1 week post-implantation when the tumor size is approximately 100 mg, mice are randomized into groups of 10 and dosed orally once daily at 2.5 mg/kg 4-[4-[4-(4-fluoro-3-trifluoromethyl-phenyl)-1-methyl-1H-imidazol-2-yl]-piperidin-1-yl]-1H-pyrazolo[3,4-d]pyrimidine (the p70 S6 kinase inhibitor; formulated in 35% PEG300/10% HPBCD/10% PS80 in H2O; concentration of inhibitor is 0.31 mg/mL) or 20 mg/kg erlotinib hydrochloride (formulated in NaCMC Tween 80; concentration of erlotinib hydrochloride is 2.5 mg/mL) or in combination (2.5 mg/kg of the p70 S6 kinase inhibitor and 20 mg/kg of erlotinib hydrochloride). The vehicle group is given the 2 vehicles (NaCMC Tween 80 and 35% PEG300/10% HPBCD/10% PS80 in H2O) in combination (0.1 mL of each). Treatment is continued for 38 days. Tumor volumes are measured using standard technique twice weekly and reported. Tumor size and body weight are recorded and analyzed bi-weekly. Tumor volume is estimated by using the formula: v=l×w^2×0.536 where l=larger of measured diameter and w=smaller of perpendicular diameter. The analysis uses SAS software version 8.2 (SAS Institutes Inc, Cary, N.C.) to analyze the log tumor volume data using a repeated measures ANOVA model with a spatial power covariance structure. For each time point taken, treatment groups are compared to the vehicle control group. Tumor volumes are given as means±standard errors for each treatment group determined from a repeated measures ANOVA on each group. (SAS for Mixed Models, 2nd Ed., Littell et al., 2006, SAS Institutes Inc, Cary, N.C.).
The tumor volume vs. time data for each animal is used to calculate an area under the curve (AUC) using the trapezoid rule. These AUCs are analyzed by 2-way ANOVA using a log transformation to equalize variance across groups. The two factors are the dose of 4-[4-[4-(4-fluoro-3-trifluoromethyl-phenyl)-1-methyl-1H-imidazol-2-yl]-piperidin-1-yl]-1H-pyrazolo[3,4-d]pyrimidine and the dose of erlotinib hydrochloride. The interaction effect between the factors is used to test for departure from additivity. (An Introduction to Statistical Methods and Data Analysis, R. Lyman Ott, 1993, Duxbury Press, Belmont, Calif.)
The results of this study are shown in the table below. n (the number of mice) is 9 for all the data, except for the data from day 17 onwards in the vehicle group and the data from day 38 onwards in the erlotinib hydrochloride group when it is 8. The data in the column headed Signif. indicates whether the difference relative to the vehicle group is statistically significant: NS=Not Significant (p>0.05); *=0.01<p≦0.05; **=0.001<p≦0.01; ***=p≦0.001.

| SMILES | pairwise comparison of log tumor volume AUC with the combination group | statistical difference (p) of log tumor volume AUC from the vehicle | Tumor volume Mean (Day 7) | Signif. (difference relative to vehicle group) (Day 7) | Tumor volume Mean (Day 9) | Signif. (difference relative to vehicle group) (Day 9) | Tumor volume Mean (Day 14) | Signif. (difference relative to vehicle group) (Day 14) | Tumor volume Mean (Day 17) | Signif. (difference relative to vehicle group) (Day 17) | Tumor volume Mean (Day 21) | Signif. (difference relative to vehicle group) (Day 21) | Tumor volume Mean (Day 24) | Signif. (difference relative to vehicle group) (Day 24) | Tumor volume Mean (Day 28) | Signif. (difference relative to vehicle group) (Day 28) | Tumor volume Mean (Day 31) | Signif. (difference relative to vehicle group) (Day 31) | Tumor volume Mean (Day 35) | Signif. (difference relative to vehicle group) (Day 35) | also measured |
| --- | --- | --- | --- | --- | --- | --- | --- | --- | --- | --- | --- | --- | --- | --- | --- | --- | --- | --- | --- | --- | --- |
| C#Cc1cccc(Nc2ncnc3cc(OCCOC)c(OCCOC)cc23)c1 [Erlotinib Hydrochloride, N-(3-ethynylphenyl)-6,7-bis-(2-methoxyethoxy)-4-quinazolinamine] | significantly different from the combination group | not significantly different from the vehicle | 39.5 | NS (NS=Not Significant (p>0.05)) | 51.5 | NS (NS=Not Significant (p>0.05)) | 61.8 | NS (NS=Not Significant (p>0.05)) | 74.8 | NS (NS=Not Significant (p>0.05)) | 91.1 | NS (NS=Not Significant (p>0.05)) | 101.6 | NS (NS=Not Significant (p>0.05)) | 139.9 | NS (NS=Not Significant (p>0.05)) | 141.8 | ** (**=0.001<p≦0.01) | 196.7 | ** (**=0.001<p≦0.01) | Tumor volume Mean (Day 38): 259.4; Signif. (difference relative to vehicle group) (Day 38): * (*=0.01<p≦0.05); Tumor volume Mean (Day 42): 260.1; Signif. (difference relative to vehicle group) (Day 42): ** (**=0.001<p≦0.01); Tumor volume Mean (Day 44): 373.8; Signif. (difference relative to vehicle group) (Day 44): * (*=0.01<p≦0.05); log tumor volume AUC: 3.76 |
| Cn1cc(-c2ccc(F)c(C(F)(F)F)c2)nc1C1CCN(c2ncnc3[nH]ncc23)CC1 [p70 S6 Kinase Inhibitor, 4-[4-[4-(4-fluoro-3-trifluoromethyl-phenyl)-1-methyl-1H-imidazol-2-yl]-piperidin-1-yl]-1H-pyrazolo[3,4-d]pyrimidine] | significantly different from the combination group | not significantly different from the vehicle | 33.8 | NS (NS=Not Significant (p>0.05)) | 51.9 | NS (NS=Not Significant (p>0.05)) | 56.2 | NS (NS=Not Significant (p>0.05)) | 75.9 | NS (NS=Not Significant (p>0.05)) | 94.1 | NS (NS=Not Significant (p>0.05)) | 113.5 | NS (NS=Not Significant (p>0.05)) | 196.6 | NS (NS=Not Significant (p>0.05)) | 231.3 | NS (NS=Not Significant (p>0.05)) | 302.4 | NS (NS=Not Significant (p>0.05)) | Tumor volume Mean (Day 38): 353.3; Signif. (difference relative to vehicle group) (Day 38): NS (NS=Not Significant (p>0.05)); Tumor volume Mean (Day 42): 425.5; Signif. (difference relative to vehicle group) (Day 42): NS (NS=Not Significant (p>0.05)); Tumor volume Mean (Day 44): 530.9; Signif. (difference relative to vehicle group) (Day 44): NS (NS=Not Significant (p>0.05)); log tumor volume AUC: 3.85 |
